In US9044429B2, “Personal care compositions comprising a methyl naphthalenyl ketone or a derivative thereof” (The Gillette Company, priority 2010, dated 2015):

Experiments:
Type in all cases: cell-based
human TRPV1 [1] = target: T1, human TRPV1 (Homo sapiens, UniProt Q8NER1); assay: Pre-Incubation Test (FLIPR intracellular calcium, HEK-293 cells, capsaicin activator); conditions: test compound final 100 μM
T1 construct: expressed in transfected cells; host or cells: HEK-293
Method: (§1) The Pre-Incubation Test and Direct Addition Test Methods, as defined herein, can be conducted on either TRPV1 or TRPA1 receptors.
(§2) Pre-Incubation Test Method: First, the intracellular calcium ion (Ca^+2) levels in TRPV1 and TRPA1 receptors is measured. HEK-293 (human embryonic kidney) cells stably transfected with human TRPV1 or TRPA1 are grown in 15 ml growth medium [high glucose DMEM (Dulbecco's Modification of Eagle's Medium) supplemented with 10% FBS (fetal bovine serum), 100 μg/ml Penicillin/streptomycin, 100 μg/ml G418] in a 75 Cm^2 flask for 3 days at 33° C. in a mammalian cell culture incubator set at 5% CO2. Cells are detached with addition of 10 ml of PBS (phosphate buffered saline) by hand shaking gently. […] Fluo-4 is a fluorescent dye used for quantifying cellular Ca^2+ concentrations in the 100 nM to 1 microM range. […]
(§3) The pellet cells are re-suspended in 10 ml assay buffer and 90 μl aliquots (50,000 cells) per well delivered to a 96-well assay plate containing 10 μl of test compounds (1 mM in assay buffer, final concentration 100 μM) or buffer control and incubated at room temperature for 30 minutes. After 30 minutes, the plate is placed into a fluorometric imaging plate reader (FLIPR^384 from Molecular Devices) and basal fluorescence recorded (excitation wave length 488 nm and emission wave length 510 nm). […]

human TRPA1 [2] = target: T2, human TRPA1 (Homo sapiens, UniProt O75762); assay: Pre-Incubation Test (FLIPR intracellular calcium, HEK-293 cells, AITC activator); conditions: test compound final 100 μM
T2 construct: expressed in transfected cells; host or cells: HEK-293
T2 sequence (O75762 whole entry): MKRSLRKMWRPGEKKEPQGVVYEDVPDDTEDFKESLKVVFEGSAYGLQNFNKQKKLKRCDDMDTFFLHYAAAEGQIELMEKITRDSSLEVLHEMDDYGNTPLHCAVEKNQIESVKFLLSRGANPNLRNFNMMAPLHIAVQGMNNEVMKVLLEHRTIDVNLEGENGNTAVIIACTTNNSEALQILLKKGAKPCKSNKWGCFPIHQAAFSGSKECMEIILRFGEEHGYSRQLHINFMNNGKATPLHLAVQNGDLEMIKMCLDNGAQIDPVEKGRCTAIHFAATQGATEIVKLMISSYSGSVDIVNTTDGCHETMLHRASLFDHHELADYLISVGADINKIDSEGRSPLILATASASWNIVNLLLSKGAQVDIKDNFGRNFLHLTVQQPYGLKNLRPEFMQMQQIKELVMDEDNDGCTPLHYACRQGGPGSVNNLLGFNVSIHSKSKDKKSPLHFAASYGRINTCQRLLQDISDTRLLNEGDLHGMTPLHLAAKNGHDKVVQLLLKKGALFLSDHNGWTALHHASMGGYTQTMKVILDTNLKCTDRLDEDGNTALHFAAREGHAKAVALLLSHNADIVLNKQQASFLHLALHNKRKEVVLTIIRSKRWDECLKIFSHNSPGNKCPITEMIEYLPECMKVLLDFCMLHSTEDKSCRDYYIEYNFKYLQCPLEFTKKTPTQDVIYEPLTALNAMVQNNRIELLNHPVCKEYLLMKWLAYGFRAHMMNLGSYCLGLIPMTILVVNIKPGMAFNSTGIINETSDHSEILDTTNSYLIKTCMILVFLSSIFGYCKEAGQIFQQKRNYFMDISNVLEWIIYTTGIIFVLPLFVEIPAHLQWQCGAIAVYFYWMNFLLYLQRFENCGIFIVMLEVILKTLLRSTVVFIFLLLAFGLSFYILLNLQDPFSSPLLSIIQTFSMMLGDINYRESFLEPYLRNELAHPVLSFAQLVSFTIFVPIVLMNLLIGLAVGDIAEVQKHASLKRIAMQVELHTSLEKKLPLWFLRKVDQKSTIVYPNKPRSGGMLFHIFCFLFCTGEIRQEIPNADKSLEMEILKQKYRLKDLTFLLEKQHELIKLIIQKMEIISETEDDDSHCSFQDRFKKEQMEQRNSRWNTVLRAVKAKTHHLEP
Method: as §1, §2, §3

human TRPA1 [3] = target: T2, human TRPA1; assay: Direct Addition Test (FLIPR intracellular calcium, HEK-293 cells); conditions: compound final 100 μM
Method: as §1
(§4) Pre-Incubation Test Method: First, the intracellular calcium ion (Ca^+2) levels in TRPV1 and TRPA1 receptors is measured. HEK-293 (human embryonic kidney) cells stably transfected with human TRPV1 or TRPA1 are grown in 15 ml growth medium [high glucose DMEM (Dulbecco's Modification of Eagle's Medium) supplemented with 10% FBS (fetal bovine serum), 100 μg/ml Penicillin/streptomycin, 100 μg/ml G418] in a 75 Cm^2 flask for 3 days at 33° C. in a mammalian cell culture incubator set at 5% CO2. Cells are detached with addition of 10 ml of PBS (phosphate buffered saline) by hand shaking gently. Cells are transferred to a 50 ml tube and centrifuged at 850 rpm for 3 minutes to remove PBS. After centrifugation, a pellet of cells is formed in the bottom of the tube separating them from the supernatant solution. The supernatant is discarded and the cell pellet is suspended in 1 ml of fresh growth medium to which 5 μl (12.5 μg) of Fluo-4 AM (Molecular Probes, Inc.) calcium indicator is added and incubated for 30 min with gentle shaking on a plate shaker. Fluo-4 is a fluorescent dye used for quantifying cellular Ca^2+ concentrations in the 100 nM to 1 microM range. At the end of the 30 minutes, 45 ml of assay buffer [1×HBSS (Hank's Balanced Salt Solution), 20 mM HEPES (4-(2-Hydroxyethyl)-1-piperazineethanesulfonic acid)] is added to wash cells and the resulting combination is then centrifuged at 850 rpm for 3 minutes to remove excess buffer and Fluo-4 AM calcium indicator.
(§5) The pellet cells are re-suspended in 10 ml assay buffer and 90 μl aliquots (50,000 cells) per well delivered to a 96-well assay plate containing 10 μl of test compounds (1 mM in assay buffer, final concentration 100 μM) or buffer control and incubated at room temperature for 30 minutes. After 30 minutes, the plate is placed into a fluorometric imaging plate reader (FLIPR^384 from Molecular Devices) and basal fluorescence recorded (excitation wave length 488 nm and emission wave length 510 nm). […] Then 20 μl of the activators [1.8 μM Capsaicin (final concentration 300 nM) for TRPV1 or 300 μM AITC (final concentration 50 μM) for TRPA1 is added by FLIPR automatically and fluorescence recorded immediately.
(§6) Direct Addition Test Method (for determining the direct effect of test compounds on TRPV1 and TRPA1): All procedures are same as the pre-incubation test except 10 μl assay buffer instead of 10 μl test compounds in the 96-well assay plates. The fluorescence is measured immediately after addition of 20 μl of 600 μM each compound (final concentration 100 μM). […] The percentage of up-regulation or down-regulation is calculated based on the fluorescence measurement.

human TRPV1 [4] = target: T1, human TRPV1; assay: as above; conditions: compound final 100 μM
Method: as §1, §4, §5, §6

[5] = calculated from fluorescence relative to activator

T1 sequence (Q8NER1 whole entry): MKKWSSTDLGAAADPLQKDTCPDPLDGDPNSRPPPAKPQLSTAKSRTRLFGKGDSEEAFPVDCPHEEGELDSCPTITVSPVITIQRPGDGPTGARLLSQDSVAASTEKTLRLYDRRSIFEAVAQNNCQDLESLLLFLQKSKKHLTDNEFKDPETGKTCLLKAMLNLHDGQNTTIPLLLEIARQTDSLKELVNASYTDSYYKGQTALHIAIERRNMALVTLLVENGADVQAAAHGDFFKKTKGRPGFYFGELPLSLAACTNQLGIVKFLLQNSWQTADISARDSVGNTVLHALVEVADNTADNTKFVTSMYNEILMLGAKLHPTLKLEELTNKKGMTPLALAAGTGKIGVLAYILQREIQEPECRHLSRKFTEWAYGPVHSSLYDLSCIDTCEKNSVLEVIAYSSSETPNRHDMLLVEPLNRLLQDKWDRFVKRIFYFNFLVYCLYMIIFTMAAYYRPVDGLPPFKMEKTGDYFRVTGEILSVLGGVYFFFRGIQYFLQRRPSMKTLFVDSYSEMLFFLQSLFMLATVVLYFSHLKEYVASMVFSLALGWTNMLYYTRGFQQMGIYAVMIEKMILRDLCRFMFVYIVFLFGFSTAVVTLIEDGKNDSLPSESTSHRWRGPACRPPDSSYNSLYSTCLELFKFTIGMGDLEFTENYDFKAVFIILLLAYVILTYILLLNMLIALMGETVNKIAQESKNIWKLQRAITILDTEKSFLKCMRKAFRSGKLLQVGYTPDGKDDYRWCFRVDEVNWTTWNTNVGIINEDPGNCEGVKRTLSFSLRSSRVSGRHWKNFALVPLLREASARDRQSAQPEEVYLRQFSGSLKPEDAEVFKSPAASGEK

CC(=O)C1(C)CC2=C(CCCC2(C)C)CC1C (centres unmarked) [Iso E Super, 1-(1,2,3,4,5,6,7,8-octahydro-2,3,8,8-tetramethyl-2naphthalenyl)-ethan-1-one]
Fluorescence value after adding Iso E Super (human TRPV1 [1]; 30 min at room temperature, then capsaicin final 300 nM): 2334.51 fluorescence units | % Regulation (human TRPV1 [1]; [5]): 21.82% | Fluorescence value after adding Iso E Super (human TRPA1 [2]; 30 min at room temperature, then AITC final 50 μM): −57.37 fluorescence units | % Regulation (human TRPA1 [2]; [5]): −0.40% | % Regulation (human TRPA1 [3]; [5]): 11.53% | Fluorescence value after adding Iso E Super (human TRPA1 [3]; measured immediately): 1386.593 fluorescence units | % Regulation (human TRPV1 [4]; [5]): −0.71% | Fluorescence value after adding Iso E Super (human TRPV1 [4]; measured immediately): −82.62 fluorescence units
